Read-outs that look alike come from different tables or passages of the source.
Legend:
FLT3 ITD, F691L = target: T1, FLT3 ITD, F691L (Homo sapiens, UniProt P36888, F691L, form not given); experiment: DiscoverX KINOMEscan competition binding, FLT3 ITD, F691L; details: no ATP
T1 construct: fused on or other part: DNA tag for qPCR read-out (T7 phage fusion, or DNA-tagged kinase made in HEK-293 cells)
T1 sequence (P36888 1-993 F691L): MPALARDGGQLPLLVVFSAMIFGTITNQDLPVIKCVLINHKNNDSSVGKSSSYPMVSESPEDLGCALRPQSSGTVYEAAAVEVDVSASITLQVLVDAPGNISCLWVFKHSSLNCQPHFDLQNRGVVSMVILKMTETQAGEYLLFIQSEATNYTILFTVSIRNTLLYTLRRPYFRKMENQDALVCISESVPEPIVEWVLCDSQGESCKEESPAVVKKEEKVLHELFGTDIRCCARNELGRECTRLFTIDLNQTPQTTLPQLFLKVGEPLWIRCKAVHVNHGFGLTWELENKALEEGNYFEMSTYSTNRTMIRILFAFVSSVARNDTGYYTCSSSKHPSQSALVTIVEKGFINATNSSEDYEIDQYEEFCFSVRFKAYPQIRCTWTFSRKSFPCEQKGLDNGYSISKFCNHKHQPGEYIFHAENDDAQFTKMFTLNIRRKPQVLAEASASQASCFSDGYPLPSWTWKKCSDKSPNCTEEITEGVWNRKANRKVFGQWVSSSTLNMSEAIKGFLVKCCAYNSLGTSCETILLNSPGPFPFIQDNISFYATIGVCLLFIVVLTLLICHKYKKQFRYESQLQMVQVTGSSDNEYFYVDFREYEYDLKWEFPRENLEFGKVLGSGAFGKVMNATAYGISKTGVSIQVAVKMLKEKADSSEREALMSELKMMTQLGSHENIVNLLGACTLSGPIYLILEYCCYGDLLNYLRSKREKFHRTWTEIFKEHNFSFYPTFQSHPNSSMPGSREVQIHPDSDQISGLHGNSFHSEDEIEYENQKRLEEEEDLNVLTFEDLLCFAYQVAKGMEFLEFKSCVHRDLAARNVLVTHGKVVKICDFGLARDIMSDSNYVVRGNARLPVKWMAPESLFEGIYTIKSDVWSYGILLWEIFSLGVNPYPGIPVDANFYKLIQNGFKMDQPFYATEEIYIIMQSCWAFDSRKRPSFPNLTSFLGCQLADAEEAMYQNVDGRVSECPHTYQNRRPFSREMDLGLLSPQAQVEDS
From the text: Kinase binding data were obtained for various exemplary compounds prepared according to Examples 2-15 using the DiscoverX KINOMEscan® active site-directed competition binding site-directed assay protocol described below. […] As a result, the data report thermodynamic interaction affinities (Kd values), rather than IC50 values that are dependent on ATP concentrations. The assay uses a DNA-tagged version of the protein kinase, and an immobilized ligand bound to a solid support. Compounds that directly or indirectly prevent kinase binding to the immobilized ligand reduce the amount of kinase captured on the solid support, which is detected using an ultra-sensitive qPCR method. Affinity constants reported from the assay have been reported to be independent of the immobilized ligand used that is coupled to the solid support (See supplemental information in Fabian, M. A. et. al., (2005) Nat. […] Wodicka, L. […] Biol. 17, 1241-1249.) Kinase-tagged T7 phage strains were prepared in an E. coli host derived from the BL21 strain. E. coli were grown to log-phase and infected with T7 phage and incubated with shaking at 32° C. until lysis. […] Kds were determined using an 11-point 3-fold compound dilution series with three DMSO control points. […] The kinase concentration in the eluates was measured by qPCR. Binding constants (Kds) were calculated with a standard dose-response curve using the Hill equation. […]

NF-κB = experiment: NF-kB assay in THP-1-Blue NF-κB cells (SEAP reporter); type: cell-based
Method: THP-1-Blue NF-κB cells (InvivoGen) carrying a stable integrated NF-κB-inducible secreted embryonic alkaline phosphatase (SEAP) reporter construct were plated at a concentration of 1×10^5 cells per well. The cells were stimulated with Pam3CSK4 (1 ng/mL) or hIL1B (Ing/mL). After 10-20 minutes, the cells were then treated with vehicle (DMSO) or serial dilutions of the test compounds (10 doses tested for each test compound, with a 1:10 dilution series starting at 1 μM or 3 μM) with a final volume of 200 μL for 24 hours at 37° C. After 24 hours, the cells were centrifuged and 20 IL supernatant was incubated with 180 μL QUANTI-Blue reagent at 37° C. for 30-60 minutes. The levels of NF-κB-induced was measured in a microplate reader at 620 nm.

[1] = THP-1-Blue NF-κB cells stimulated with Pam3CSK4, 24 hours, read-out: NF-κB Pam3SCK4 IC50
[2] = THP-1-Blue NF-κB cells stimulated with hIL1B, 24 hours, read-out: NF-κB IL1B IC50

| SMILES | Kd (FLT3 ITD, F691L) [nM] | IC50 (NF-κB; [1]) [nM] | IC50 (NF-κB; [2]) [nM] |
| --- | --- | --- | --- |
| COc1cc2ncc(-c3nc(N[C@H]4CNCC[C@@H]4F)c(F)cc3F)n2nc1C1CCC1 [Compound 15a, 6-(6-cyclobutyl-7-methoxyimidazo[1,2-b]pyridazin-3-yl)-3,5-difluoro-N-((3S,4S)-4-fluoropiperidin-3-yl)pyridin-2-amine] | < 0.17 | 108 | 136 |
| COc1cc2ncc(-c3nc(N[C@H]4CNCC[C@@H]4F)c(F)cc3F)n2nc1C(C)(O)C(F)(F)F (single isomer, unassigned) [Compound 77a] |  | 166 | 254 |
| COc1cc2ncc(-c3nc(N[C@H]4CNCC[C@@H]4F)c(F)cc3F)n2nc1C12CC(C1)C2 [Compound 67a, 6-(6-(bicyclo[1.1.1]pentan-1-yl)-7-methoxyimidazo[1,2-b]pyridazin-3-yl)-3,5-difluoro-N-((3S,4S)-4-fluoropiperidin-3-yl)pyridin-2-amine] |  | 284 | 331 |

— patent US20250368648A1, “MULTI-CYCLIC IRAK AND FLT3 INHIBITING COMPOUNDS AND USES THEREOF” (CHILDREN'S HOSPITAL MEDICAL CENTER, priority 2022, published 2025)
